Test system: HIV-Res
Type: cell-based, HIV-1
Settings: resistant viral isolate "Res"
Description: Assessment of biological properties included measurement of antiviral activity against HIV-1 strains. In determining antiviral activity (e.g., one measure being the ability to inhibit transmission of HIV to a target cell) of the HIV fusion inhibitor peptides, an in vitro assay which has been shown, by data generated using peptides derived from the HR regions of HIV gp41, to be predictive of antiviral activity observed in vivo was used. […] These assays score for reduction of infectious virus titer employing the indicator cell lines MAGI or the CCR5 expressing derivative cMAGI. Both cell lines exploit the ability of HIV-1 tat to transactivate the expression of a β-galactosidase reporter gene driven by the HIV-LTR. The β-gal reporter has been modified to localize in the nucleus and can be detected with the X-gal substrate as intense nuclear staining within a few days of infection. […] The number of infected cells for each control and peptide dilution was determined with the CCD-imager, and then the IC50 was calculated (expressed in μg/ml).
Viruses resistant to the antiviral activity of a peptide consisting of a base sequence can be produced using standard laboratory methods. […] The cultures are maintained and monitored until syncytia are present. […] The second round of culture is maintained and monitored for presence of virus resistant to the antiviral activity of the peptide. […]

Q: “Ac-TTWEAWDRAIAEYAARIEALLRALQEQQEKNEAALREL-NH2 [SEQ ID NO:9, TTWEAWDRAIAEYAARIEALLRALQEQQEKNEAALREL]” was tested. Which “Antiviral Activity (μg/ml) HIV-Res IC50” value did it give?
A: <0.10 µg/mL
